SMILES strings stand for the structures. A value given as a limit tells only on which side of the number the result lay.

By IC50 is commonly meant the midpoint of a concentration-inhibition curve.

In the assay the target is BRD4 protein (Homo sapiens, UniProt O60885). Nature of the assay: FRET assay, half maximal inhibitory concentration (IC50). The format is binding. The conditions noted are these: BRD4 protein 50 nM, Biotin-H4KAc4 peptide 12.5 nM; List of Classification. Here is the method: The compounds were biologically evaluated by determining the half maximal inhibitory concentration (IC50) by FRET assay. The IC50 is a measure of the effectiveness of a substance in inhibiting a specific biological or biochemical function.
For IC50 determinations, dose-response curves were generated, using a top concentration of 50 μM compound in 12.5% DMSO, followed by 10-fold dilutions in 12.5% DMSO. The composition of the reaction buffer was 50 mM HEPES, pH 7.5; 100 mM NaCl, 0.05% CHAPS.
The reaction was run in a final volume of 25 μl. The BRD4 protein (16.5 μl) was added to wells of 384w white Optiplates (Perkin Elmer) (50 nM final concentration) and 1 μl of compound dilution of DMSO control. Incubation time was 30 minutes at room temperature. In the next step, 2.5 μl Biotin-H4KAc4 peptide (Millipore 13-379) was added to the wells (final concentration was 12.5 nM), and the plates were incubated for 30 minutes at room temperature. Detection was performed by addition of 5 μl of a mix of mAb GST-XL665 (Cisbio 61GSTXLB) (10 nM final concentration) and Streptavidin Cryptate (Cisbio 610SAKLB) (2.4 nM final conc.) in reaction buffer with 0.4M KF and 0.05% BSA). The plates were incubated for one hour prior to reading on an Envision reader (Perkin Elmer)
Data was analyzed using GraphPad Prism, and IC50 data was obtained using non-linear regression curve fit using log(inhibitor) vs response (variable slope). All compounds were considered active although classified (according to the half maximal inhibitory concentration (IC50) by FRET assay) as follows: […]
`Cc1cc(O)nc2ccc(NC(=O)c3cc(CN4CCOCC4)ccc3N3CCCC3c3cc[nH]n3)cc12` (stereo not shown) [Compound-27, 2-(2-(1H-pyrazol-3-yl)pyrrolidin-1-yl)-N-(2-hydroxy-4-methylquinolin-6-yl)-5-(morpholinomethyl) benzamide] showed an IC50 of 1000 to 10000 nM.

For the molecule `O=C(Nc1ccc2nc(O)cc(C(F)(F)F)c2c1)c1cc(CN2CCOCC2)ccc1N1CCCC1` [Compound-28, N-(2-hydroxy-4-(trifluoromethyl)quinolin-6-yl)-5-(morpholinomethyl)-2-(pyrrolidin-1-yl) benzamide], the half-inhibitory concentration (IC50) was 500 to 1000 nM. `Cc1cc2nc(O)cc(C)c2cc1NC(=O)c1cc(CN2CCOCC2)ccc1N1CCCC1` [Compound-29, N-(2-hydroxy-4,7-dimethylquinolin-6-yl)-5-(morpholinomethyl)-2-(pyrrolidin-1-yl)benzamide] showed an IC50 below 200 nM.

`Cc1cc(O)nc2ccc(NC(=O)c3cc(CN4CCOCC4)ccc3N3CCCC3CO)cc12` (stereo not shown) [Compound-30, N-(2-hydroxy-4-methylquinolin-6-yl)-2-(2-(hydroxymethyl)pyrrolidin-1-yl)-5-(morpholinomethyl) benzamide]: the IC50 was below 200 nM. For `Cc1cc(O)nc2ccc(NC(=O)c3cc(CN4CCOCC4)ccc3N3CCC(O)C3)cc12` (stereo not shown) [Compound-31, N-(2-hydroxy-4-methyl-6-quinolyl)-2-(3-hydroxypyrrolidin-1-yl)-5-(morpholinomethyl)benzamide], the IC50 was below 200 nM. To `Cc1cc(O)nc2ccc(NC(=O)c3cc(CN4CCOCC4)ccc3N3CCCC3CN(C)C)cc12` (stereo not shown) [Compound-32, 2-(2-((dimethylamino)methyl)pyrrolidin-1-yl)-N-(2-hydroxy-4-methylquinolin-6-yl)-5-(morpholinomethyl) benzamide] belongs below 200 nM; to `Cc1cc(O)nc2ccc(NC(=O)c3nc(-c4nnn[nH]4)ccc3N3CCCC3)cc12` [Compound-33, N-(2-hydroxy-4-methylquinolin-6-yl)-3-(pyrrolidin-1-yl)-6-(1H-tetrazol-5-yl) picolinamide], 1000 to 10000 nM; to `Cc1cc(O)nc2ccc(NC(=O)c3cc(CN4CCOCC4)ccc3N3CCCC3=O)cc12` [Compound-34, N-(2-hydroxy-4-methylquinolin-6-yl)-5-(morpholinomethyl)-2-(2-oxopyrrolidin-1-yl) benzamide], 500 to 1000 nM.

Take `Cc1cc(O)nc2ccc(NC(=O)c3nc(C#N)ccc3N3CCCC3)cc12` [Compound-35, 6-Cyano-N-(2-hydroxy-4-methylquinolin-6-yl)-3-(pyrrolidin-1-yl)picolinamide]: the IC50 was 500 to 1000 nM.

Regarding `Cc1cc(O)nc2ccc(NC(=O)c3nc(CN)ccc3N3CCCC3)cc12` [Compound-36, 6-(aminomethyl)-N-(2-hydroxy-4-methylqunolin-6-yl)-3-(pyrrolidin-1-yl)picolinamide], the concentration for half-maximal inhibition (IC50) lay in the range of 1000 to 10000 nM. To `Cc1cc(O)nc2ccc(NC(=O)c3nc(CN(C)C)ccc3N3CCCC3)cc12` [Compound-37] belongs 1000 to 10000 nM; to `CC(=O)c1ccc(N2CCCC2)c(C(=O)Nc2ccc3nc(O)cc(C)c3c2)n1` [Compound-38, 6-acetyl-N-(2-hydroxy-4-methylquinolin-6-yl)-3(pyrrolidin-1-yl)picolinamide], below 200 nM.

On to `Cc1cc(O)nc2ccc(NC(=O)c3nc(C(C)O)ccc3N3CCCC3)cc12` (stereo not shown) [Compound-39], for which the IC50 fell in the range of 500 to 1000 nM. `Cc1cc(O)nc2ccc(NC(=O)c3nc(C(N)=O)ccc3N3CCCC3)cc12` [Compound-40, N2-(2-hydroxy-4-methylquinolin-6-yl)-3-(pyrrolidin-1-yl)pyridine-2,6-dicarboxamide]: the IC50 was 200 to 500 nM. To `Cc1cc(O)nc2ccc(NC(=O)c3cc(C#N)ncc3N3CCCC3)cc12` [Compound-41, 2-Cyano-N-(2-hydroxy-4-methylquinolin-6-yl)-5-(pyrrolidin-1-yl) isonicotinamide] belongs below 200 nM; to `CC(=O)c1cc(C(=O)Nc2ccc3nc(O)cc(C)c3c2)c(N2CCCC2)cn1` [Compound-42, 2-acetyl-N-(2-hydroxy-4-methylquinolin-6-yl)-5 (pyrrolidin-1-yl)isonicotinamide], below 200 nM; to `Cc1cc(O)nc2ccc(NC(=O)c3cc(C(C)O)ccc3N3CCCC3)cc12` (stereo not shown) [Compound-46, N-(2-hydroxy-4-methylquinolin-6-yl)-5-(1-hydroxyethyl)-2-(pyrrolidin-1-yl) benzamide], below 200 nM. On to `COC(C)c1ccc(N2CCCC2)c(C(=O)Nc2ccc3nc(O)cc(C)c3c2)c1` (stereo not shown) [Compound-47, N-(2-hydroxy-4-methylquinolin-6-yl)-5-(1-methoxyethyl)-2-(pyrrolidin-1-yl) benzamide], for which the IC50 is below 200 nM.

`COCc1ccc(N2CCCC2CN(C)C)c(C(=O)Nc2ccc3nc(O)cc(C)c3c2)c1` (stereo not shown) [Compound-48, 2-(2-((dimethylamino)methyl)pyrrolidin-1-yl)-N-(2-hydroxy-4-methylquinolin-6-yl)-5-(methoxymethyl)benzamide]: the IC50 lay in the range of 200 to 500 nM. The molecule `Cc1cc(O)nc2ccc(NC(=O)c3cc(COC(C)C)ccc3N3CCCC3)cc12` [Compound-50, N-(2-hydroxy-4-methylquinolin-6-yl)-5-(isopropoxymethyl)-2-(pyrrolidin-1-yl) benzamide] displayed an IC50 below 200 nM. To `Cc1cc(O)nc2ccc(NC(=O)c3cc(OC(F)(F)F)ccc3N3CCCC3CN(C)C)cc12` (stereo not shown) [Compound-51, 2-(2-((dimethylamino)methyl)pyrrolidin-1-yl)-N-(2-hydroxy-4-methylquinolin-6-yl)-5-(trifluoromethoxy) benzamide] belongs below 200 nM; to `Cc1cc(O)nc2ccc(NC(=O)c3cc(N)ccc3N3CCOCC3)cc12` [Compound-54, 5-amino-N-(2-hydroxy-4-methyl-6-quinolyl)-2-morpholino-benzamide], 500 to 1000 nM. `Cc1cc(O)nc2ccc(NC(=O)c3cc(NCC(N)=O)ccc3N3CCOCC3)cc12` [Compound-55, 5-[(2-amino-2-oxo-ethyl)amino]-N-(2-hydroxy-4-methyl-6-quinolyl)-2-morpholino-benzamide] came in with an IC50 of 200 to 500 nM.

Molecule `Cc1cc(O)nc2ccc(NC(=O)c3cc(S(=O)(=O)N4CCOCC4)ccc3N3CCOCC3)cc12` [Compound-68, N-(2-hydroxy-4-methyl-6-quinolyl)-2-morpholino-5-morpholinosulfonyl-benzamide] returned an IC50 below 200 nM.

With `COc1ccccc1C(=O)Nc1ccc2nc(O)cc(C)c2c1` [Compound-69, N-(2-hydroxy-4-methyl-6-quinolyl)-2-methoxy-benzamide], the IC50 is above 10000 nM. To `Cc1cc(O)nc2ccc(NC(=O)c3cc(S(N)(=O)=O)ccc3N3CCOCC3)cc12` [Compound-70, N-(2-hydroxy-4-methyl-6-quinolyl)-2-morpholino-5-sulfamoyl-benzamide] belongs below 200 nM; to `Cc1cc(O)nc2ccc(NC(=O)c3cc(S(=O)(=O)N(C)C)ccc3N3CCCC3)cc12` [Compound-72, 5-(dimethylsulfamoyl)-N-(2-hydroxy-4-methyl-6-quinolyl)-2-pyrrolidin-1-yl-benzamide], below 200 nM; to `Cc1cc(O)nc2ccc(NC(=O)c3cc(S(=O)(=O)N(C)C)ccc3N3CCOCC3)cc12` [Compound-73, 5-(dimethylsulfamoyl)-N-(2-hydroxy-4-methyl-6-quinolyl)-2-morpholino-benzamide], below 200 nM. The molecule `Cc1cc(O)nc2ccc(NC(=O)c3cc(S(=O)(=O)N4CCOCC4)ccc3N3CCCC3)cc12` [Compound-74, N-(2-hydroxy-4-methyl-6-quinolyl)-5-morpholinosulfonyl-2-pyrrolidin-1-yl-benzamide] showed an IC50 below 200 nM. To `Cc1cc(O)nc2ccc(NS(=O)(=O)c3cc([N+](=O)[O-])ccc3N3CCOCC3)cc12` [Compound-76, N-(2-hydroxy-4-methyl-6-quinolyl)-2-morpholino-5-nitro-benzenesulfonamide] belongs 1000 to 10000 nM. To `Cc1cc(O)nc2ccc(NS(=O)(=O)c3cc(N)ccc3N3CCOCC3)cc12` [Compound-77, 5-amino-N-(2-hydroxy-4-methyl-6-quinolyl)-2-morpholino-benzenesulfonamide] belongs above 10000 nM. The molecule `CN(C)S(=O)(=O)c1ccc(N2CCOCC2)c(C(=O)Nc2ccc3[nH]c(=O)cc(C(F)(F)F)c3c2)c1` [Compound-79, 5-(dimethylsulfamoyl)-2-morpholino-N-[2-oxo-4-(trifluoromethyl)-1H-quinolin-6-yl]benzamide] registered an IC50 of 1000 to 10000 nM.

`Cc1cc(O)nc2ccc(NS(=O)(=O)c3cc(S(N)(=O)=O)ccc3N3CCOCC3)cc12` [Compound-80, N3-(2-hydroxy-4-methyl-6-quinolyl)-4-morpholino-benzene-1,3-disulfonamide] showed an IC50 above 10000 nM. To `Cc1cc(O)nc2ccc(NC(=O)c3cc([N+](=O)[O-])ccc3N3CCCC3)cc12` [Compound-82, N-(2-hydroxy-4-methyl-6-quinolyl)-5-nitro-2-pyrrolidin-1-yl-benzamide] belongs below 200 nM.

(Values after patent publication US10752640B2, “Compounds active towards bromodomains” (NUEVOLUTION A/S, priority 2014, dated 2020).)
